From paper PMC7525492, “Microtiter plate-based antibody-competition assay to determine binding affinities and plasma/blood stability of CXCR4 ligands” (Scientific Reports, 2020)
Like-named read-outs stand apart in the source and are kept apart here. Bridge positions count the residues as written; N and C are the ends. Square brackets hold non-standard residues; d marks the D form. Ends that are not written are not given here. Peptide text beside a SMILES is read from it. * marks the point of attachment. 2Nal = N[C@@H](Cc1ccc2ccccc2c1)C(=O)O; Benzoyl(4-F) = O=C(c1ccc(F)cc1)*; Cit = NC(=O)NCCC[C@H](N)C(=O)O

Assays:
CXCL12 migration = conditions: cited from earlier work
[1] = 20 µM, up to 60 min, 37 °C, mouse plasma from a single animal
Procedure: Next, we evaluated whether the competition assay may be applied to measure peptide degradation in mouse plasma.
Plasma from 6 donors was pooled and stored in aliquots at − 80 °C. Mouse plasma was obtained by heart punctation of BL6 mice after cervical dislocation. Blood was 19:1 diluted with 0.16 M NaEDTA and centrifuged at 2000 rcf for 20 min at 4 °C to obtain plasma.
for 60 min at 37°C. At given time points aliquots were taken and stored at - 80°C. Activity of plasma/peptide was
determined using 12G5- antibody competition assay.

in vitro = in vitro ADME, human
Procedure: (§1) Compounds were 150-fold diluted in human plasma or whole human blood to reach final concentrations of 20 µM. The t = 0 sample was immediately taken and stored at − 80 °C. Plasma/compound or blood/compound mixture was then transferred to 37 °C and shook at 350 rpm. At given time points samples were taken and stored at − 80 °C. For measuring the functional activity of the plasma/peptide samples, the mixtures were thawed and serially diluted in ice cold PBS (starting with 100% sample). 12G5-APC antibody competition was then performed as described before. Note, that during the competition process the samples are 1:1 diluted with the antibody and the highest plasma concentration on cells was 50%. For blood/peptide functional stability, samples were thawed and centrifuged at 14,000 rpm for 3 min at 4 °C to remove cells and debris. The supernatant was then serially diluted in PBS (starting with 100% sample) and 12G5-antibody competition assay was performed. After the 2 h incubation, the cells were washed by centrifugation (1.300 rpm, 4 °C) and 50 µL of 1-step-Fix/Lyse solution (Thermo Fisher #00-5333-54) was added for 15 min at room temperature. Afterwards cells were washed again and analyzed for bound antibody.
Statistical analysis was performed in GraphPad Prism (version 8.3.0). IC50 and IC90 curves and the areas under the curves (AUC) were determined by nonlinear regression. For half-life calculations, the IC50 values for each time point as well as the AUCs were analyzed and normalized relative to t = 0. Activities were then determined ((IC50 (t = 0) / IC50 (t)) × 100) for each time point and half-lives determined by a One-Phase-Decay model.

CXCR4 [2] = target: T1, CXCR4 (Homo sapiens, UniProt P61073); experiment: 12G5 antibody competition assay on SupT1 cells; type: binding
Procedure: Compounds were serially diluted in ice cold PBS and 12G5-APC antibody was diluted in cold PBS containing 1% FCS. […] Plates were incubated at 4 °C in the dark for 2 h. Afterwards cells were washed twice by centrifugation with PBS containing 1% FCS and fixed with 2% paraformaldehyde (PFA). During all pipetting steps, plates were kept cool by using a cooling pad. Antibody binding was analyzed by flow cytometry (FACS CytoFLEX; Beckman Coulter) by determination of the mean fluorescence intensity (MFI) of at least 5.000 cells (50.000 cells per well) or 1.000 cells (5.000 cells per well).
Ki calculation3 Ki=IC50/1+L/Kd
For Ki = inhibitory constant; IC50 = half maximal inhibition for 12G5 binding; [L] = 12G5 concentration; Kd = dissociation constant of 12G5.
(§2) Statistical analysis was performed in GraphPad Prism (version 8.3.0). IC50 and IC90 curves and the areas under the curves (AUC) were determined by nonlinear regression.

CXCR4-tropic HIV-1 [3] = conditions: read-out: IC50 HIV-1; TZM-bl cells, infection rate after 3 days; mean ± SEM of 3 assays
CXCR4-tropic HIV-1 [4] = test system: CXCR4-tropic HIV-1; set-up: method as in PMID 25921529, PMID 30768790; conditions: cited from earlier work
CXCR4 [5] = target: T1, CXCR4; experiment: 12G5 antibody competition assay on SupT1 cells; type: binding; conditions: 1, 2 and 4 h incubation, Fig. S2
[6] = Functional stability in human plasma read out by 12G5 competition; type: in vitro ADME; conditions: for half-life at 20 µM: human, plasma
Procedure: as §1, with “The” for “Compounds were 150-fold diluted in human plasma or whole human blood to reach final concentrations of 20 µM. The”, “After the 2 h incubation, the cells were washed by centrifugation (1.300 rpm, 4 °C) and 50 µL of 1-step-Fix/Lyse solution (Thermo Fisher #00-5333-54) was added for 15 min at room temperature.” left out
as §2

CXCR4 [7] = target: T1, CXCR4; experiment: 1D9 control antibody competition on SupT1 cells; type: binding; conditions: PE-labelled 1D9, SupT1 cells, single experiment
Procedure: Small molec ule (a) or peptide
(b, c) ligands were diluted in PBS and added to precooled SupT1 cells. A constant concentration of PE-labelled
1D9-antibod y (or 12G5- APC antibod y in (c)) was added immediately afterward s. After 2 h i ncub atio n in t he d ark,
cells were washed and analyzed by flo w cyto metry.
by mea s uring t he percenta ge o f gated living cells in flo w c ytome tr y upon treatme nt with the inhibitor.
data derived from a single experiment.

[8] = read-out: IC50 Migration, 100 ng/mL CXCL12, 4 h, mean ± SEM of 3 assays

T1 sequence (P61073 whole entry): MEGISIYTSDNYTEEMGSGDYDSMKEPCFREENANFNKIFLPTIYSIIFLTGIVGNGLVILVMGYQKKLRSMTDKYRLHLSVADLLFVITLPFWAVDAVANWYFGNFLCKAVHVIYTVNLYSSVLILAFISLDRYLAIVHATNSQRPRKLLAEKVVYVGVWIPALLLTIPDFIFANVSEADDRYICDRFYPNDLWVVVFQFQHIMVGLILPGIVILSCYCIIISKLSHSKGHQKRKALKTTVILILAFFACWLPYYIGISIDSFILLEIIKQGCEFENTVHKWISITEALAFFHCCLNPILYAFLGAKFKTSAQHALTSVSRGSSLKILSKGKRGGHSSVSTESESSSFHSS

Row | Compound | IC50 leukemia cell migration towards CXCL12 (CXCL12 migration) | inactivation in mouse plasma versus human plasma [1] | half-life t1/2 in blood (in vitro; 20 µM in whole EDTA blood of an individual donor, 37 °C) | half-life at 20 µM (in vitro; human, 20 µM in whole EDTA blood of an individual donor, 37 °C, read-out: half-life t1/2 in blood) | stability in blood compared to plasma (in vitro; human, plasma) | IC50 (SupT1 cells; [8]) | IC50 (SupT1 cells; read-out: IC50 migration, SupT1 towards CXCL12) | IC50 (CXCR4 [2]; SupT1 cells, APC-labelled 12G5, 2 h at 4 °C, mean ± SEM of 3 assays) | Ki (CXCR4 [2]; calculated from IC50 12G5 by Cheng-Prusoff, Kd of 12G5 151.5 pM) | IC50 (CXCR4-tropic HIV-1 [3]) | IC50 CXCR4-tropic HIV-1 infection (CXCR4-tropic HIV-1 [4]) | IC50, IC90 and AUC after different incubation times (CXCR4 [5]) | 12G5-competing activity after 24 h in plasma ([6]; 20 µM in 99.3% pooled human plasma, 37 °C, 24 h) | half-life t1/2 in plasma ([6]; 20 µM in pooled human plasma (6 donors), 37 °C, from IC50 relative to t = 0, one-phase decay) | half-life t1/2 in plasma ([6]; 20 µM in pooled human plasma (6 donors), 37 °C, from IC50 relative to t = 0, one-phase decay, listed as WCS02) | inactivation in plasma with L-leucinethiol ([6]; human plasma pretreated with 300 µM L-leucinethiol (leucyl aminopeptidase inhibitor)) | half-life at 20 µM ([6]; 20 µM in plasma of an individual donor, 37 °C, read-out: half-life t1/2 in plasma) | half-life at 20 µM ([6]; 20 µM in pooled human plasma (6 donors), 37 °C, from IC50 relative to t = 0, one-phase decay, read-out: half-life t1/2 in plasma) | half-life at 20 µM ([6]; 20 µM in pooled human plasma, 37 °C, from areas under inhibition curves, read-out: half-life t1/2 in plasma from AUC) | effect on 1D9 antibody binding (CXCR4 [7])
1 | IVRWSKKVPCVS [EPI-X4 WSC02] | nanomolar range | more rapid inactivation of the peptide in mouse plasma | 9 min | 8.9 min | less stable in blood compared to plasma | 15800 nM | 16000 nM | 290 ± 75 nM | 111 ± 29 nM | 257 ± 109 nM | nanomolar range | No significant differences | remained partially active | 10 min | ~ 10 min | largely prevented WSC02 inactivation | 9.7 min | 9.7 min | 9.7 min | –
2 | N=C(N)NCCC[C@H](NC(=O)[C@@H]1CSSC[C@H](NC(=O)[C@H](Cc2ccc3ccccc3c2)NC(=O)[C@H](CCCNC(=N)N)NC(=O)[C@H](CCCNC(=N)N)NC(=O)c2ccc(F)cc2)C(=O)N[C@@H](Cc2ccc(O)cc2)C(=O)N[C@@H](CCCNC(N)=O)C(=O)N[C@@H](CCCCN)C(=O)N[C@H](CCCCN)C(=O)N2CCC[C@H]2C(=O)N[C@@H](Cc2ccc(O)cc2)C(=O)N[C@@H](CCCNC(=N)N)C(=O)N[C@@H](CCCNC(N)=O)C(=O)N1)C(N)=O [BKT-140] ({Benzoyl(4-F)}-RR[2Nal]CY[Cit]K[dK]PYR[Cit]CR-NH2; disulfide 4-13; N-terminus and C-terminus assumed) | – | – | – | – | – | 932 ± 131 nM | – | – | – | 435 ± 153 nM | – | – | – | – | – | – | – | – | – | seemed to reduce 1D9 binding
